Assay results: article PMC10969092, “Characterization of Lysophospholipase D Activity in Mammalian Cell Membranes” (Cells, 2024)
Like-named read-outs stand apart in the source and are kept apart here.

Legend:
lyso-PLD [1] = assay: In vitro membrane lyso-PLD assay (B-lyso-PC substrate, B-LPA product); assay type: biochemical, rat
lyso-PLD [2] = assay type: biochemical, human; details: PC-3 membranes; for EC50: single-site competition fit, read-out: EC50 for inhibiting B-lyso-PC conversion to B-LPA; for Ability to compete with B-lyso-PC for utilization by lyso-PLD: up to 4.6 mM
PLD [3] = biological target: T1, PLD (Rattus norvegicus, UniProt P70498); assay: In vitro fluorescent PLD assay in cell membranes (B-PC substrate with butanol, B-PBt product); assay type: biochemical
T1 construct: PC12K membranes were incubated with either B-PC (for PLD assay) or commercial B-lyso-PC (for lyso-PLD assay); endogenous in cells; host or cells: PC12K and A7r5 cell membranes (100,000 x g pellet)
T1 sequence (P70498 whole entry): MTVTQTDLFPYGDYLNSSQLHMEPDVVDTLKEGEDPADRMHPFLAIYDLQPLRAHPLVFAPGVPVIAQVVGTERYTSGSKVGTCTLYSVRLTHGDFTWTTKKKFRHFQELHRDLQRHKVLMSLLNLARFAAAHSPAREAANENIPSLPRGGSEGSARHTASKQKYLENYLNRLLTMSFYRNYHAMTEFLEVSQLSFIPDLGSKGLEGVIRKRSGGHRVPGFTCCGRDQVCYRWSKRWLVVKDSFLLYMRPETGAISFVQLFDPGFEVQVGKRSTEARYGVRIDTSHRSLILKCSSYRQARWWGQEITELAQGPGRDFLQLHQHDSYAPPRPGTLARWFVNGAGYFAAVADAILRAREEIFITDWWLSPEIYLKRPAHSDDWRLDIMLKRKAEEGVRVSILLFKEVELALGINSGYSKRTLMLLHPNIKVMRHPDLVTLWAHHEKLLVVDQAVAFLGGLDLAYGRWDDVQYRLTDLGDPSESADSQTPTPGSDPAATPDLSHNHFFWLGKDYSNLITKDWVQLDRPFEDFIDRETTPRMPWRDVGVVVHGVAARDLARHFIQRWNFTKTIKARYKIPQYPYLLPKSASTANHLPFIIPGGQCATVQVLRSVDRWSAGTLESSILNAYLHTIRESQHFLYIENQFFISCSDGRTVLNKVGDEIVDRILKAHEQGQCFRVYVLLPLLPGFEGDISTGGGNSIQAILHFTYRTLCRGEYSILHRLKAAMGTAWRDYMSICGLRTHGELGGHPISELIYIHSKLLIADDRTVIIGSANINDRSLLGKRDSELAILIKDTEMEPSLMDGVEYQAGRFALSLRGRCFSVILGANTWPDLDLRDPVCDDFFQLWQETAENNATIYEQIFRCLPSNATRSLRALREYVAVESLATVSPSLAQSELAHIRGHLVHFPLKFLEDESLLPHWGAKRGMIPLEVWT

PLD [4] = assay: PLD activity in intact cells; assay type: cell-based; details: multiple cell types, varying experimental conditions
PLD [5] = system: PLD; set-up: method as in PMID 9655185; details: cited from earlier work
PLC from Bacillus cereus = details: cited from earlier work
cabbage PLD = details: cited from earlier work

For `Nc1ncnc2c1ncn2[C@@H]1O[C@H](COP(=O)(O)OP(=O)(O)OP(=O)(O)O)[C@@H](O)[C@H]1O` [ATP], the “Stimulation of lyso-PLD activity” value (lyso-PLD [1]) was “did not stimulate lyso-PLD activity”.

Work on `CCCCCCCCCCCCCCCCOC[C@@H](O)COP(=O)([O-])OCC[N+](C)(C)C` [C16-lyso-PAF] yielded an EC50 (lyso-PLD [2]) of roughly 400 µM.

For `CCCCCCCCCCCCCCCC(=O)OC[C@@H](O)COP(=O)([O-])OCC[N+](C)(C)C` [C16-lyso-PC], the EC50 (lyso-PLD [2]) was roughly 300 µM.

With `CCCCCCCCCCCCCCCCCCOC[C@@H](O)COP(=O)([O-])OCC[N+](C)(C)C` [C18-lyso-PAF] the EC50 (lyso-PLD [2]) was roughly 400 µM.

For `CCCCCCCCCCCCCCCCCC(=O)OC[C@@H](O)COP(=O)([O-])OCC[N+](C)(C)C` [C18-lyso-PC], the EC50 (lyso-PLD [2]) was roughly 300 µM.

With `CCCCCCCC/C=C\CCCCCCCC(=O)OC[C@@H](O)COP(=O)([O-])OCC[N+](C)(C)C` [C18:1-lyso-PC] the EC50 (lyso-PLD [2]) was roughly 300 µM.

With `O=S(=O)([O-])[O-].[Cu+2]` [copper sulfate] the “Inhibition of PLD in screening assays” value (PLD [3]) was “did not inhibit PLD”.

With `C[S+](C)[O-]` [dimethylsulfoxide] the “Effect on PLD activity” value (PLD [3]; 8%, cell line not stated) was “completely inhibited” and the “Effect on lyso-PLD activity” value (lyso-PLD [1]; 8%, cell line not stated) was “relatively insensitive”.

In the case of `[Cl-].[Cl-].[Mg+2]` [magnesium chloride], the “Inhibition of PLD in screening assays” value (PLD [3]) is reported as “did not inhibit PLD” and the “Stimulation of lyso-PLD activity” value (lyso-PLD [1]) is reported as “did not stimulate lyso-PLD activity”.

For `O=S(=O)([O-])[O-].[Mg+2]` [magnesium sulfate], the “Inhibition of PLD in screening assays” value (PLD [3]) was “did not inhibit PLD”.

For `O=[N+]([O-])c1ccc(OP(=O)(O)O)cc1` [para-nitrophenol phosphate], the “Inhibition of PLD in screening assays” value (PLD [3]) was “did not inhibit PLD”.

For `O=C([O-])C(=O)[O-].[K+].[K+]` [potassium oxalate], the “Inhibition of PLD in screening assays” value (PLD [3]; concentrations of 1–10 mM) was “did not inhibit PLD”.

In the case of `[Na+].[Na+].[O]=[Mo](=[O])([O-])[O-]` [sodium molybdate], the “Inhibition of PLD in screening assays” value (PLD [3]; concentrations of 1–10 mM) is reported as “did not inhibit PLD”.

In the case of `O=C([O-])C(=O)[O-].[Na+].[Na+]` [sodium oxalate], the “Inhibition of PLD in screening assays” value (PLD [3]; concentrations of 1–10 mM) is reported as “did not inhibit PLD”.

For `O=S(=O)([O-])[O-].[Zn+2]` [zinc sulfate], the “Inhibition of PLD in screening assays” value (PLD [3]) was “did not inhibit PLD”.

With `O=P(O)(O)OC(CO)CO` [β-glycerophosphate] the “Inhibition of PLD in screening assays” value (PLD [3]) was “did not inhibit PLD”.

With Lyso-phosphatidylserine the “Ability to compete with B-lyso-PC for utilization by lyso-PLD” value (lyso-PLD [2]) was “poor competitor”.

In the case of lyso-phosphatidylethanol, the “Ability to compete with B-lyso-PC for utilization by lyso-PLD” value (lyso-PLD [2]) is reported as “least effective”.

For pervanadate, the “Inhibition of PLD in intact cells” value (PLD [4]) is given as “failed to show that vanadate, pervanadate, or iodate inhibits PLD” and the “Effect on PLD in intact endothelial cells” value (PLD [5]) is given as “activate PLD”.

With sodium orthovanadate the “B-PBt levels in kinetic study” value (PLD [3]; 1 mM added after 10 min, PC12K membranes, B-PC substrate) was “B-PBt levels declined”, the “Effect on PLD activity (production of B-PBt)” value (PLD [3]; 1 mM, A7r5 membranes, B-PC substrate) was “profound inhibition of PLD activity” and the “Effect on lyso-PLD activity (B-LPA from B-lyso-PC)” value (lyso-PLD [1]) was “did not inhibit”. For the same molecule, the “Production of LPA in kinetic study” value (lyso-PLD [1]) was “not significantly affected”, the “Inhibition of PLD in intact cells” value (PLD [4]) was “failed to show that vanadate, pervanadate, or iodate inhibits PLD” and the “B-lyso-PBt production in kinetic study” value (PLA2) was “continued but at a reduced rate”. The “Effect on PLA2 activity (generation of B-lyso-PC and B-lyso-PBt from B-PC)” value (PLA2) was “did not inhibit”, the “lyso-PC accumulation in kinetic study” value (PLA2) was “did not affect lyso-PC accumulation” and the “Inhibition of PLC from Bacillus cereus” value (PLC from Bacillus cereus) was “inhibit a PLC from Bacillus cereus”. For the same molecule, the “Direct inhibition of cabbage PLD” value (cabbage PLD) was “directly inhibit cabbage PLD”.

For sodium tungstate, the “Inhibition of PLD in screening assays” value (PLD [3]; concentrations of 1–10 mM) was “did not inhibit PLD”.
